Measured values taken from patent publication US6921772B2, “Methods and compositions for the treatment of chronic lymphocytic leukemia” (Salmedix, Inc., priority 1998, dated 2005).

Experiments:
[1] = test system: normal human adherent mononuclear cells; experiment: Uptake of TAMRA stained patient mononuclear cells by normal adherent mononuclear cells (phagocytosis), flow cytometry; format: cell-based
Experimental: To examine the possibility that a metabolite of etodolac or a serum factor may be necessary to achieve the clinical effect, the in vivo percentages of viable, apoptotic and late apoptotic or necrotic cells of isolated mononuclear cells were measured by flow cytometry using FITC annexin and propridium iodide assay. During early apoptosis and preceding DNA fragmentation, phosphatydylserine becomes exposed and bond by annexin V. Later in apoptosis and in cell necrosis, cells also become permeable to propidium iodide. FITC labeled […] and propidium iodide are easily detected by flow cytometry. Mononuclear cells were isolated from the peripheral blood of the patient by differential centrifugation on ficoll-Hypaque at baseline and then daily for three additional days after administration of etodolac. […] However, the percentage of viable cells increased and the percentage of late apoptotic or necrotic cells decreased. […] After an overnight incubation, the adherent cells were isolated and analyzed by flow cytometry for uptake of TAMRA stained cells from the patient. No increase in the uptake of the stained leukemic mononuclear cells by the normal adherent cells could be detected for etodolac compared to naproxen. […]

[2] = test system: isolated mononuclear cells from the peripheral blood of the patient; experiment: FITC annexin / propidium iodide flow cytometry of the patient's isolated mononuclear cells after etodolac; format: in vivo, human; conditions: baseline and daily for three days after administration, as lymphocyte count dropped
Experimental: To examine the possibility that a metabolite of etodolac or a serum factor may be necessary to achieve the clinical effect, the in vivo percentages of viable, apoptotic and late apoptotic or necrotic cells of isolated mononuclear cells were measured by flow cytometry using FITC annexin and propridium iodide assay. During early apoptosis and preceding DNA fragmentation, phosphatydylserine becomes exposed and bond by annexin V. Later in apoptosis and in cell necrosis, cells also become permeable to propidium iodide. FITC labeled […] and propidium iodide are easily detected by flow cytometry. Mononuclear cells were isolated from the peripheral blood of the patient by differential centrifugation on ficoll-Hypaque at baseline and then daily for three additional days after administration of etodolac. […] However, the percentage of viable cells increased and the percentage of late apoptotic or necrotic cells decreased. […] To examine the possibility that etodolac might enhance the clearance of leukemic lymphocytes by enhancing phagocytosis by macrophages, TAMRA stained isolated mononuclear cells from the patient were incubated with normal human adherent mononuclear cells in the presence of naproxen or etodolac in vitro. After an overnight incubation, the adherent cells were isolated and analyzed by flow cytometry for uptake of TAMRA stained cells from the patient. No increase in the uptake of the stained leukemic mononuclear cells by the normal adherent cells could be detected for etodolac compared to naproxen. To test the possibility that a metabolite of etodolac could be responsible for the effect, serum from the patient was collected free of drug, after receiving naproxen 375 mg bid for two days and after receiving etodolac 400 mg bid for two days, and tested in the above manner.

patient with B-cell CLL = experiment: In vivo administration of NSAIDs to a B-cell CLL patient: blood cell counts
[3] = B-cell CLL patient, count after NSAID course, etodolac 300 mg BID, mean +/- SD of 3 experiments

Row | SMILES | effect on lymphocyte count of the patient (in words) (patient with B-cell CLL; summary of Table 1) | effect on white blood cell count of the patient (in words) (patient with B-cell CLL; summary of Table 1) | other results
1 | CCc1cccc2c3c([nH]c12)C(CC)(CC(=O)O)OCC3 (racemic) [Etodolac, 1,8-diethyl-1,3,4,9-tetrahydro[3,4-b]-indole-1-acetic acid] | substantial reductions | substantial reductions | uptake of stained leukemic mononuclear cells by normal adherent cells ([1]; drug present in vitro, overnight incubation, compared to naproxen): No increase; phagocytosis of lymphocytes with patient serum ([1]; serum collected after etodolac 400 mg bid for two days, compared with drug-free serum and serum after naproxen 375 mg bid): No enhancement; percentage of apoptotic cells [2]: remained the same; percentage of late apoptotic or necrotic cells [2]: decreased; percentage of viable cells [2]: increased; Lymphocyte Ct. x E-3 (patient with B-cell CLL; [3]): 20.68 x E-3; Neutrophil Count x E-3 (patient with B-cell CLL; [3]): 3.58 x E-3; WBC Count x E-3 (patient with B-cell CLL; [3]): 25.27 x E-3; platelet count (in words) (patient with B-cell CLL; Oct. 28, 1997, after 300 mg BID Oct. 25-27, 1997): normal; lymphocyte count (patient with B-cell CLL; Oct. 28, 1997, after 300 mg BID Oct. 25-27, 1997, count before treatment 27.44×E3): 6.70 ×E3; white blood cell count (patient with B-cell CLL; Oct. 28, 1997, after 300 mg BID Oct. 25-27, 1997, count before treatment 34.3×E3): 13.40 ×E3; effect on platelet count (in words) (patient with B-cell CLL; summary of Table 1): increased significantly
2 | O=C(O)Cc1ccccc1Nc1c(Cl)cccc1Cl [Diclofenac, diclofenac] | relatively little impact | relatively little impact | –
3 | CC(C)Cc1ccc(C(C)C(=O)O)cc1 (stereo not shown) [Ibuprofen, ibuprofen] | relatively little impact | – | –
4 | COc1ccc2c(c1)c(CC(=O)O)c(C)n2C(=O)c1ccc(Cl)cc1 [Indomethacin, indomethacin] | relatively little impact | relatively little impact | –
5 | COc1ccc2cc(CCC(C)=O)ccc2c1 [Nabumetone, nabumetone] | relatively little impact | relatively little impact | –
6 | COc1ccc2cc([C@H](C)C(=O)O)ccc2c1 [Naproxen, naproxen] | relatively little impact | relatively little impact | –
7 | O=C(O)CCc1nc(-c2ccccc2)c(-c2ccccc2)o1 [Oxaprozin, oxaprozin] | relatively little impact | relatively little impact | –
8 | CN1C(C(=O)Nc2ccccn2)=C(O)c2ccccc2S1(=O)=O [Piroxicam, piroxicam] | relatively little impact | relatively little impact | –
9 | CC1=C(CC(=O)O)c2cc(F)ccc2/C1=C\c1ccc([S+](C)[O-])cc1 (stereo not shown) [Sulindac, sulindac] | relatively little impact | relatively little impact | –
10 | Cc1ccc(C(=O)c2ccc(CC(=O)O)n2C)cc1 [Tolmetin, tolmetin] | relatively little impact | relatively little impact | –
